Assay results taken from patent US8158575B2, “Agent for the prevention and treatment of sexually transmitted diseases-I” (priority 2001, dated 2012).
Marks after values point to notes of the source that are not given here.

What was measured:
ME180 cells = assay: XTT cell viability in the CD4-independent transmission assay
Description: ME180 cells, a CD4 negative, X4 positive cervical epithelial cell line is maintained in RPMI 1640 supplemented with 10% fetal bovine serum, glutamine and antibiotics. Twenty-four h prior to the assay ME180 cells are trypsonized, washed and seeded in 96-well flat bottom microtiter plates at a density of 2×10^3 cells per well. On the day of the assay, H9 cells chronically infected with the SK1 clinical isolate of HIV-1 (H9-SK1) are treated with freshly made mitomycin C (200 μg/ml) for 60 minutes at 37° C. This concentration of mitomycin C is sufficient to result in cell death, but allows virus transmission to occur. After mitomycin C treatment the H9-SK1 cells are washed three times with tissue culture medium. Test compounds are added to the ME180 monolayer followed by 2×10^4 H9-SK1 cells. The ME180 cells are co-cultured with H9-SK-1 cells and test material for 4 h, and the H9-SK1 cells are removed by washing the ME180 monolayer three times with PBS. At 24 and 48 h post assay initiation the wells are again washed three times with PBS to ensure removal of the H9-SK1 cells, and culture continued in test material free media. At six days post-co-cultivation, supernatants are collected and evaluated for p24 antigen expression by ELISA. Cell viability is assessed by XTT dye reduction. […] Testing in the presence of mucin is carried out by addition of 200 µg/ml of porcine mucin (Sigma Chemical Co., St Louis, Mo.) to the transmission reactions. Transmission intervals and washing without replacement of mucin or compound are carried as described above. All determinations are performed in triplicate with serial ½ Log10 dilution of the test materials.
TC50 values for the test materials are derived by measuring the reduction of the tetrazolium dye XTT (2,3-bis(2-methoxy-4-nitro-5-sulfophenyl)-5-[(phenylamino)carbonyl]-2H-tetrazolium hydroxide) in replicate microtiter plates containing cell and compound without virus. […] XTT solution is prepared daily as a stock of 1 mg/mL in PBS. Phenazine methosulfate (PMS) solution is prepared at 15 mg/mL in PBS and stored in the dark at −20° C. XTT/PMS stock is prepared immediately before use by diluting the PMS 1:100 into PBS and adding 40 µl per mL of XTT solution. Fifty microliters of XTT/PMS are added to each well of the plate and the plate incubated for 4 h at 37° C. The 4 h incubation has been empirically determined to be within the linear response range for […] dye reduction with the indicated numbers of cells for each assay. Adhesive plate sealers are used in place of the lids, the sealed plate is inverted several times to mix the soluble formazan product and the plate is read at 450 nm with a Molecular Devices Vmax 96 well plate format spectrophotometer.
Dextran sulfate (positive) and dextran (negative) are used as controls for the CD4-dependent and CD4-independent HIV transmission inhibition assays. […] Commercially available Penicillin (10,000 U/ml) Streptomycin (10.0 mg/ml) solution is used as a positive control for the Lactobacillus sensitivity assay.

HIV-1 (IIIB) = assay type: cell-based; conditions: strain IIIB (HIV-1), MT-4 cells
Description: (§1) The human immunodeficiency virus strains used were HIV-1 (IIIB)^1 and HIV-2 (ROD)^2. Anti-retroviral activity and cytotoxicity measurements were carried out in parallel. […] After the MT-4 cells were allowed to proliferate for 5 days, the number of viable cells was quantified by a tetrazolium-based calorimetric 3-(4,5-dimethylthiazol-2-yl)-2,5-diphenyltetrazolium bromide (MTT) procedure in 96-well microtrays.^3
(§2) In all of these assays, viral input (viral multiplicity of infection, MOI) was 0.01, or 100 times the 50% cell culture infective dose (CCID50). […] Average EC50 and CC50 values for several separate experiments are presented as defined above. […] SI is the antiviral selectivity index CC50/EC50.

HIV-2 (ROD) = assay: Anti-retroviral activity in HIV-infected MT-4 cells (MTT); assay type: cell-based; conditions: strain ROD (HIV-2)
Description: as §1, §2

GHOST(3) X4/R5 cell line = assay: XTT cell viability in the CD4-dependent transmission assay; assay type: cell-based, human
Description: The […] is carried out essentially as described for the CD4-independent transmission assay except for the use of the CD4 positive GHOST(3) X4/R5 cell line. This cell line is derived from the HOS (human osteosarcoma) cell line that is negative for HIV coreceptor and CD4 expression. The cell line is engineered to express T4 (CD4), R5 and X4 via non-selectable retroviral vectors and an HIV-2 LTR hGFP construct with a hygromycin selectable marker. The cell lines are handled and cultured as described above for the CD4-independent HIV inhibition assay, with the exception that 2.5×10^4 GHOST(3) X4/R5 and 5×10^2 mitomycin C treated H9/SK-1 cells are used in the assay. Addition of compounds, mitomycin C treatment and post-transmission washing to remove the H9/SK-1 cells are performed as described above to allow comparability of the two antiviral assays. Virus replication is assessed at 24 h post infection, following 3 washes, by measurement of cell-associated p24 by ELISA to ensure a single round of infection in the presence of CD4. Compound toxicity and cell viability are assessed by XTT dye reduction.

C. trachomatis = C. trachomatis genital tract infection in mice; assay type: in vivo, mouse; conditions: 15 μL of 100 mg/mL, −20 sec
Excerpt: Lower genital tract infection is defined by isolation of the organism by culture from vaginal swab samples collected on days 3 or 6 post challenge. For upper genital tract infection the definition is isolation of the organism by culture from the upper genital tract tissue harvested on day 10 post challenge. Phosphate buffer PBS treated mice were used as controls.

For “BHAlyslys2lys4lys8lys16[NH—CO—CH2)O-3,6-Naphthyl-(SO3Na)2]32 [SPL-7013]”, the “CD4-Independent Transmission Assay TC50” value (ME180 cells) was greater than 100 µg/mL, the EC90 (HIV-1 (IIIB)) was 0.954 µg/mL and the EC50 (HIV-1 (IIIB); 5 days) was 0.45 µg/mL. The EC90 (HIV-2 (ROD)) was 4.86 µg/mL, the EC50 (HIV-2 (ROD); 5 days) was 3.26 µg/mL and the “CD4-Dependent Transmission Assay TC50” value (GHOST(3) X4/R5 cell line) was greater than 100 µg/mL. For the same substance, the “Animals Protected Against Infection, Lower Tract (%)” value (C. trachomatis; Group 1, mouse) was “(50%)^a”, the “Animals Protected Against Infection, Lower Tract (number)” value (C. trachomatis; Group 1, mouse) was 8 and the “Animals Protected Against Infection, Upper Tract (%)” value (C. trachomatis; Group 1, mouse) was “(50%)”. For the same substance, the “Animals Protected Against Infection, Upper Tract (number)” value (C. trachomatis; Group 1, mouse) was 8, the “Animals Protected Against Infection, Lower Tract (%)” value (C. trachomatis; Group 2, mouse) was “(38%)” and the “Animals Protected Against Infection, Lower Tract (number)” value (C. trachomatis; Group 2, mouse) was 6. The “Animals Protected Against Infection, Upper Tract (%)” value (C. trachomatis; Group 2, mouse) was “(50%)^a” and the “Animals Protected Against Infection, Upper Tract (number)” value (C. trachomatis; Group 2, mouse) was 8.
